Details of series [1]: method as in PMID 11576780, PMID 9691477. The following applies: cited from earlier work.
On the set-up of series [2]: method as in Chinese Pharmacopoeia, 2005 edition and references 15, 27, 38. The conditions noted are these: ref Chinese Pharmacopoeia, 2005 edition and references 15, 27, 38; cited from earlier work.
On the set-up of series [3]: method as in DrugBank database. The conditions noted are these: ref DrugBank database; cited from earlier work.
A short description of series [4]: PAMPA with synthetic phospholipid membrane, decyl chain (C10). Type of series: in vitro ADME. The following applies: for Papp at 16 h: PAMPA, read-out: P e. In general terms: The PAMPA barrier holds no transporters, so it reflects passive diffusion.
Method: (§1) In PAMPA, a “sandwich” structure was formed by a 96-well microtiter plate and a 96-well filter plate from Millipore (IPVH, 125 μm thick filter, 0.45 μm pore), then wetted with a 4 μl 2% w/v phospholipid compound solution in n-dodecane [27].
(§2) The stock solutions of the drug samples were prepared at 10 mM concentrations in DMSO and stored at 0°C before use. Before being added to a 96-well filter plate, the stock solution was diluted first with buffer to achieve a final sample concentration of 10∼50 μM and to reduce the DMSO concentration below 1% (v/v).
(§3) The PAMPA plate was filled with a 300 μl diluted drug solution to prepare the “donor” wells, and the 96-well filter plate containing a synthetic phospholipid membrane was then placed on the donor wells. The “acceptor” wells were filled with 200 μl of buffer solution and placed on top of the “sandwich”, and the PAMPA instruments were incubated at 25°C in a sealed and saturated humidity container for a specified time. After reaching the permeation time, the PAMPA plate sandwich was separated, and the amount of drugs in both the donor and acceptor compartments were measured by comparing the experimental spectra with the UV spectrum (220∼400 nm) obtained from reference standards.
(§4) The factor S was the fraction of samples remaining in the donor and the acceptor wells at time t.
(§5) In the incubation time assays, the pH was 7.4 in both the donor and acceptor wells. In the pH-gradient assays, the pH of the drug solutions was varied using NaOH-treated universal buffer (pION Inc.) in the donor wells, and the pH in the acceptor solution was pH 7.4 [15]. In addition, the incubation time in the pH-gradient test assays was 16 h.
Series [5] in a line: PAMPA with synthetic phospholipid membrane, octyl chain (C8). Type of series: in vitro ADME. The conditions noted are these: PAMPA, read-out: P e.
Method: as §1, §2, §3, §4, §5
The nature of series [6]: PAMPA with synthetic phospholipid membrane, lauryl chain (C12). The class given is in vitro ADME. The conditions noted are these: for Papp at 16 h: PAMPA, read-out: P e.
Method: as §1, §2, §3, §4, §5

SMILES strings stand for the structures.

With `NC(N)=Nc1nc(CSCCC(N)=NS(N)(=O)=O)cs1` [Famotidine], in series [1], the “%FA (human fraction absorbed)” value was 40%. The “pKa (first value listed)” value in series [2] is listed as 7.24. In addition, in series [2], the “pKa (second value listed)” value was 11.19. Also, in series [3], the Water solubility was 1000 mg. For the same molecule, the P e in series [4] (C10, donor pH 4.98, acceptor pH 7.4, 16 h) is 2.2 ×10^–6 cm/s; in series [6] (C12, donor pH 4.6, acceptor pH 7.4, 16 h) it was 1.2 ×10^–6 cm/s; in series [6] (C12, donor pH 4.98, acceptor pH 7.4, 16 h), 1.2 ×10^–6 cm/s. Further, the Papp at 16 h in series [4] (C10, donor pH 4.6, acceptor pH 7.4, 16 h) was determined as 1.2 ×10⁻⁶ cm/s; in series [4] (C10, donor pH 6.57, acceptor pH 7.4, 16 h) it was 5.7 ×10⁻⁶ cm/s; in series [4] (C10, donor pH 9.32, acceptor pH 7.4, 16 h), 5.5 ×10⁻⁶ cm/s; in series [4] (pH 7.4, C10 membrane, incubation time 16 h, pH 7.4 donor and acceptor, 25°C), 2.8 ± 0.2 ×10⁻⁶ cm/s; in series [5] (C8, donor pH 4.6, acceptor pH 7.4, 16 h), 1.1 ×10⁻⁶ cm/s; in series [5] (C8, donor pH 4.98, acceptor pH 7.4, 16 h), 2.2 ×10⁻⁶ cm/s. Further, the Papp at 16 h was 5 ×10⁻⁶ cm/s in series [5] (C8, donor pH 6.57, acceptor pH 7.4, 16 h); 5.1 ×10⁻⁶ cm/s in series [5] (C8, donor pH 9.32, acceptor pH 7.4, 16 h); 2.7 ± 0.3 ×10⁻⁶ cm/s in series [5] (pH 7.4, C8 membrane, incubation time 16 h, pH 7.4 donor and acceptor, 25°C); 6 ×10⁻⁶ cm/s in series [6] (C12, donor pH 6.57, acceptor pH 7.4, 16 h); 6.1 ×10⁻⁶ cm/s in series [6] (C12, donor pH 9.32, acceptor pH 7.4, 16 h); 3.2 ± 0.4 ×10⁻⁶ cm/s in series [6] (pH 7.4, C12 membrane, incubation time 16 h, pH 7.4 donor and acceptor, 25°C).
